Experimental findings from patent US20130270195A1, “MULTIFUNCTIONAL COMPOSITION FOR THE DISINFECTION TREATMENT OF WATER, AND USE OF THIS COMPOSITION” (Compagnie Des Salins Du Midi Et Des Salines De L'Est, priority 2010, published 2013) are described below.

Series [1] in a line: Evolution of turbidity of swimming pool water samples (HACH turbidity meter). The settings on record: for Turbidity: Aquacid or metasilicate 40.0 mg/L. The format is physicochemical. An excerpt: The aim of this test was to compare the effect of two compositions comprising sodium chloride and isocyanuric acid in disinfecting swimming pool water, one further comprising HEDP, and the other metasilicate in order to obtain a composition according to the invention.
In all of the examples below, the substances used were as follows: • salt; • isocyanuric acid; • Aquacid© (powder with 72% HEDP); • disodium metasilicate pentahydrate; • tap water; • commercial bleach (concentration of bleach: 2.15% of active chlorine); • 1N hydrochloric acid; • 35% sulfuric acid; • sodium hydroxide; and • acetone.
The following proportions were prepared to prepare the samples:
The measurement of the turbidity, in NTU (Nephelometric Turbidity Unit), was carried out with the aid of a HACH turbidity meter at the time intervals indicated in Table 3. The reaction conditions were selected in order to accelerate the appearance of any cloudiness.

A short description of series [2]: Chlorine stabilizing effect under UV radiation (residual chlorine assay). The following applies: for Residual chlorine: starting 3 mg/L Cl2, sample 11 Aquacid 24.0 mg/L, sample 14 metasilicate 20.0 mg/L. It is filed as physicochemical. How it is done: In the presence of UV radiation, chlorine is destroyed photochemically. Isocyanuric acid can be used to reduce the destruction of chlorine under the effect of UV.
The following apparatus was used: 5 liter volume bucket, pH meter and normal laboratory apparatus (including class A glassware).
The operating procedure can be summarized as follows: • For each test formulation, two liters of solution was prepared in the buckets provided. The isocyanuric acid was added in the liquid form from a 1 g/L solution. The additives (metasilicates, HEDP) for the formulations were added in the liquid form from 1 g/L solutions. The dose of chlorine necessary for this study was provided by bleach in quantities that meant that solutions containing 3 mg/L of Cl2 were obtained. The solutions were systematically buffered, either with sulfuric acid or with sodium hydroxide, in order to provide a starting pH in the range 6.8 to 7.4 (zone of maximum efficiency for chlorine).
The following parameters were measured during the study: • for the starting water: pH, residual chlorine, HT, calcium, AT, CAT were measured; • throughout the experiment: pH, residual chlorine were monitored.
The chlorine measurements were carried out using quantitative chlorine assay. The measurements were carried out at times T+32 h10 and T+50 h10; the formulation of the compositions at time T are given in Table 4.

Series [3] is described as follows: Anti-corrosion effect: steel plate immersed in 4 g/L saline solutions. The following applies: for anti-corrosion activity: conclusion in words; for Fe loss/plate: results at 2 months, 4 g/L saline, sample 11 Aquacid 24.0 mg/L, sample 14 metasilicate 20.0 mg/L. How it is done:
The principle of the method consists of completely immersing, in 4 g/L saline solutions with the compounds of the formulations, one steel plate per beaker, disposed vertically in order to have as little contact as possible with the glass. The formulations were those presented in section 4 in Example 3.
The efficacy of the formulations was evaluated as a function of the loss on ignition of the plate over a period of time, namely 2 months.
The following apparatus was used: • 400 mL beakers, pH-meter, steel plate with a surface area of 5.3 cm^2, plastic film as well as normal laboratory apparatus (including class A glassware). The operating protocol can be summarized as follows:
• stripping the plates with 1N hydrochloric acid using ultrasound in order to have plates of identical quality; • degreasing the plate with acetone in order to obtain identical active surfaces; • weighing the plates with milligram precision.
Swimming pool concentration solutions were prepared in advance in 2 liters (L) graduated flasks in order to provide mutually homogeneous media. The beakers were filled with 300 mL of the above-mentioned solutions. The beakers were covered with food quality film in order to prevent the medium from being polluted and in order to prevent too much evaporation.
The parameters measured were as follows: • on the tap water: pH, HT, AT, CAT, calcium.
In order to accelerate the phenomenon of corrosion, bubbling was carried out using an aquarium pump and outlet jets mounted on a rail. The bubbling time was 10 minutes. The solutions were aerated on odd days of the week. Since bubbling raises the pH, it was brought back to swimming pool in-service values, between 6.8 and 7.4. In order to maintain the salinity at 4 g/L and to overcome natural evaporation, tap water was added in order to keep the volume of water constant at 300 mL.
The following parameters were measured: • pH; • observations of the solutions and immersed plates once a day, taking photographs. These observations were made without handling either the beakers or the solutions.
The scraping spatula was treated with ultrasound then the plates were scraped using the spatula to recover the deposit. In order to terminate stripping of the plate and thus to collect all of the deposit, the plate and the spatula were treated with ultrasound in a water bath. The deposits were then filtered through 10 micrometer (pm) pores and 1.2 μm pores and then dried.
The following parameters were measured: • the plates were weighed to milligram precision; • an iron analysis was carried out on the plates; • a dissolved iron analysis was carried out on the solutions.
The analyses were carried out after 2 months.

A short description of series [4]: Anti-limescale effect: calcium deposited as limescale on beaker walls. The following applies: for anti-limescale activity: conclusion in words; for % non limescale calcium / Calcium (part of the calcium responsible for the production of limescale): sample 11 Aquacid 24.0 mg/L, sample 14 metasilicate 20.0 mg/L. On the procedure:
The aim of this test was to analyze the reaction of two additives (HEDP, metasilicate) in the presence of calcium.
The apparatus used was as follows: • new beakers with a volume of 400 milliliters (mL), a pH meter, an oven at 70° C., plastic film as well as normal laboratory apparatus (including class A glassware).
The operating protocol can be summarized as follows: • For each test formulation, 300 mL of equivalent swimming pool solution was prepared in the beakers provided. Each series of analyses was spread over two types of water: one with a HT=30° F. and one with a HT=15° F., in order to produce a spectrum of results covering a broad range of water types. The isocyanuric acid was added in the liquid form from a 1 grams per liter (g/L) solution. The additives (HEDP, metasilicate) for the formulations were added in the liquid form from 1 g/L solutions. The solutions were systematically buffered, either with sulfuric acid or with sodium hydroxide, in order to provide an initial pH in the range 6.8 to 7.4 (maximum efficiency range for chlorine). The solutions were left covered with film and were analyzed 3 days later so that the substances had reacted. At the time the analysis was carried out, the beakers were placed in an oven at 70° C. in order to evaporate the liquid phase. They were then rinsed with 100 ml of osmosis purified water in order to eliminate the soluble deposits and to leave only limescale deposits on their walls. The beakers were then refilled with osmosis purified water and 1 mL of 1N hydrochloric acid in order to dissolve the deposits: the measurements were carried out on these solutions.
The parameters below were monitored during the study: • The following were measured for the starting tap water: pH, HT (hydrptimetric titer), calcium, AT (alkalimetric titer), and CAT (complete alkalimetric titer).
The pH was monitored throughout the experiment. The calcium was measured at the end of the experiment.

Setting [5] is: time T, salt 4.0 g/L, iso acid 28.0 mg/L, chlorine 3.0 mg/L.
Where [6] appears, read: first starting water, HT 27 °f, calcium 109 mg/L.
The mark [7] stands for this setting: second starting water, HT 14.6 °f.
The mark [8] stands for this setting: second starting water, HT 14.6 °f, calcium 44.3 mg/L.

Take `O.O.O.O.O.O=[Si]([O-])[O-].[Na+].[Na+]` [Metasilicate, disodium metasilicate pentahydrate]: the Turbidity in series [1] (T + 94 h) amounted to 0.538 NTU; in series [1] (T + 118 h), 0.547 NTU; in series [1] (T + 142 h), 0.526 NTU; in series [1] (T + 168 h), 0.579 NTU; in series [1] (T + 192 h), 1.4 NTU; in series [1] (T + 216 h), 1.45 NTU. Besides, in series [1] (setting [5]), the Turbidity is recorded as 0.274 NTU. In series [1] (same conditions as Table 3), the “cloudiness of the water detectable to the naked eye” value is recorded as “does not induce any cloudiness”. The Loss of chlorine in series [2] (T + 32 h 10) is reported as 36.36%; in series [2] (T + 50 h 10), 62.96%. Moreover, the Residual chlorine was found to be 1.89 mg/L in series [2] (T + 32 h 10) and 1.1 mg/L in series [2] (T + 50 h 10). In addition, the “preservation of the residual chlorine concentration” value in series [2] (conclusion in words) is “preserves the residual chlorine concentration better than HEDP”. Moreover, the anti-corrosion activity entry in series [3] was “anti-corrosion activity that is even better than that of HEDP”. Moreover, in series [3], the Fe loss/plate is recorded as 1.63%. Further, the anti-limescale activity entry in series [4] was “better anti-limescale activity than that of the HEDP”. In series [4] (first starting water, HT 27 °f), the “calcium in the water before treatment transformed into limescale” value is reported as 3.5%. Also, the “% non limescale calcium” value was 96.5% in series [4] (setting [6]) and 94.1% in series [4] (setting [8]). Further, the “Calcium (part of the calcium responsible for the production of limescale)” value in series [4] (setting [6]) amounted to 3.8 mg/L; in series [4] (setting [8]), 2.6 mg/L. For the same compound, in series [4] (setting [7]), the “calcium of the water before treatment transformed into limescale” value was 5.9%.

As for `CC(O)(P(=O)(O)O)P(=O)(O)O` [HEDP, 1-hydroxyethane-1,1-diphosphonic acid, reference compound], the Turbidity in series [1] (T + 94 h) is recorded as 20.5 NTU; in series [1] (T + 118 h), 22.5 NTU; in series [1] (T + 142 h), 30.1 NTU; in series [1] (T + 168 h), 34.2 NTU; in series [1] (T + 192 h), 44.4 NTU; in series [1] (T + 216 h), 56.8 NTU. In addition, the Turbidity in series [1] (setting [5]) is recorded as 0.243 NTU. Moreover, the Loss of chlorine in series [2] (T + 32 h 10) and in series [2] (T + 50 h 10) was 100.00% each time. Besides, the Residual chlorine in series [2] (T + 32 h 10) and in series [2] (T + 50 h 10) was 0 mg/L in each case. Besides, in series [3], the anti-corrosion activity result is reported as “have an anti-corrosion activity”. The compound further gave a Fe loss/plate in series [3] of 2.80%. The anti-limescale activity entry in series [4] is on record as “have an anti-limescale activity”. The “calcium in the water before treatment transformed into limescale” value in series [4] (first starting water, HT 27 °f) is 7.9%. Besides, the “% non limescale calcium” value in series [4] (setting [6]) amounted to 92.1%; in series [4] (setting [8]), 91.4%. Also, the “Calcium (part of the calcium responsible for the production of limescale)” value was found to be 8.6 mg/L in series [4] (setting [6]) and 3.8 mg/L in series [4] (setting [8]). Moreover, the “calcium of the water before treatment transformed into limescale” value in series [4] (setting [7]) is on record as 8.6%.
